# Source: ChEMBL document CHEMBL5346965, “Synthesis of Bleomycin-Inspired RNA Ligands Targeting the Biogenesis of Oncogenic miRNAs” (J Med Chem, 2023)
# pIC50, pKd: −log10 of the molar value. Activity calls are given as the source filed them. No cut-off for these calls is given here.
# Columns and labels:
# microRNA 21 [1] = test: Binding affinity to 5'-fluorescein labeled pre-miR-21 (unknown origin) by fluorescence based assay; assay type: nucleic-acid assay
# microRNA 21 [2] = test: Inhibition of pre-miR-21 (unknown origin) dicer cleavage activity preincubated for 30 mins followed by RNAase III addition and measured after 30 to 60 mins by FRET method; assay type: functional
# microRNA 21 [3] = test: Inhibition of pre-miR-21 (unknown origin) dicer cleavage activity preincubated for 30 mins followed by MCF7 cell lysates addition and measured after 30 to 60 mins by FRET method; assay type: functional, subcellular
# [4] = Antiproliferative activity against human N15-0385 cells incubated for 72 hrs by WST-1 assay; assay type: functional, cell-based; conditions: N15-0385, 72 h
# [5] = Antiproliferative activity against human N13-1300 cells incubated for 72 hrs by WST-1 assay; assay type: functional, cell-based; conditions: N13-1300, 72 h
# [6] = Antiproliferative activity against human MRC5 cells incubated for 72 hrs by WST-1 assay; assay type: toxicity, cell-based
# U-87 MG = test: Antiproliferative activity against human U87 cells incubated for 72 hrs by WST-1 assay; assay type: functional, cell-based, U-87MG ATCC
# [7] = Selectivity index, ratio of IC50 for inhibition of pre-miR-21 (unknown origin) dicer cleavage activity preincubated for 30 mins followed by MCF-7 cell lysates addition and measured after 30 to 60 mins by FRET method to IC50 for inhibition of pre-miR-21 (unknown origin) dicer cleavage activity preincubated for 30 mins followed by RNAase III addition and measured after 30 to 60 mins by FRET method
# microRNA 21 [8] = test: Inhibition of pre-miR-21 (unknown origin) dicer cleavage activity upto 1 mM preincubated for 30 mins followed by RNAase III addition and measured after 30 to 60 mins by FRET method; assay type: functional; conditions: time 60-90 min
SMILES,pKd (microRNA 21 [1]),pIC50 (microRNA 21 [2]),pIC50 (microRNA 21 [3]),Ratio IC50 [7],also measured
NCCCCNCCCNC(=O)c1csc(-c2csc(CCNC(=O)[C@@H](N)CCCCN)n2)n1,6.08,–,–,–,–
NCCCCNCCCNC(=O)c1csc(-c2csc(CCNC(=O)CCCC[C@@H]3SC[C@@H]4NC(=O)N[C@@H]43)n2)n1,5.72,4.42,–,–,inhibition (microRNA 21 [3]; time 60-90 min): inactive
Cn1nnc2c(C(N)=O)ncn2c1=O [TEMOZOLOMIDE],–,–,–,–,pIC50 [4]: < 4.00; pIC50 [5]: 4.68
NCCCCNCCCNC(=O)c1csc(-c2csc(CCNCc3ccc4scnc4c3)n2)n1,–,5.43,5.33,1.3,IC50 at 72 h [6]: > 100 µM; pIC50 [4]: 4.35; pIC50 (U-87 MG): 4.78; pIC50 [5]: 4.61
NCCCCNCCCNC(=O)c1csc(-c2csc(CCNC(=O)c3ccc4cccnc4n3)n2)n1,6.40,–,–,–,–
NCCCCNCCCNC(=O)c1csc(-c2csc(CCNCc3ccc4[nH]cnc4c3)n2)n1,–,4.69,4.30,2.5,–
NCCCCNCCCNC(=O)c1csc(-c2csc(CCNS(=O)(=O)c3ccc4ccccc4c3)n2)n1,6.48,–,–,–,–
Cc1ccc(S(=O)(=O)NCCc2nc(-c3nc(C(=O)NCCCNCCCCN)cs3)cs2)cc1,6.48,–,–,–,–
NCCCCNCCCNC(=O)c1csc(-c2csc(CCNS(=O)(=O)c3c[nH]cn3)n2)n1,–,4.69,–,–,–
Cc1nc(C)c(S(=O)(=O)NCCc2nc(-c3nc(C(=O)NCCCNCCCCN)cs3)cs2)s1,–,4.12,–,–,–
CC(C)(C)c1ccc(S(=O)(=O)NCCc2nc(-c3nc(C(=O)NCCCNCCCCN)cs3)cs2)cc1,6.48,4.79,4.03,5.6,–
NCCCCNCCCNC(=O)c1csc(-c2csc(CCNCc3ccccc3)n2)n1,–,4.51,3.71,6.2,–
NCCCCNCCCNC(=O)c1csc(-c2csc(CCNS(=O)(=O)c3cc4ccccc4s3)n2)n1,6.48,4.93,4.26,4.7,–
Cc1c(N)nc([C@H](CC(N)=O)NC[C@H](N)C(N)=O)nc1C(=O)N[C@H](C(=O)N[C@H](C)[C@@H](O)[C@H](C)C(=O)N[C@H](C(=O)NCCc1nc(-c2nc(C(=O)NCCCNCCCCN)cs2)cs1)[C@@H](C)O)[C@@H](O[C@@H]1O[C@@H](CO)[C@@H](O)[C@H](O)[C@@H]1O[C@@H]1O[C@H](CO)[C@@H](O)[C@H](OC(N)=O)[C@@H]1O)c1cnc[nH]1,4.90,–,–,–,inhibition (microRNA 21 [8]): inactive
CN(C)c1ccc(/N=N/c2ccc(S(=O)(=O)NCCc3nc(-c4nc(C(=O)NCCCNCCCCN)cs4)cs3)cc2)cc1,7.12,5.79,5.16,4.3,IC50 at 72 h [6]: > 100 µM; pIC50 [4]: 4.43; pIC50 (U-87 MG): 4.34; pIC50 [5]: 4.66
NCCCCNCCCNC(=O)c1csc(-c2csc(CCNC(=O)[C@@H](N)Cc3c[nH]cn3)n2)n1,5.77,–,–,–,–
NCCCCNCCCNC(=O)c1csc(-c2csc(CCNS(=O)(=O)c3cccc4cccnc34)n2)n1,6.48,–,–,–,–
NCCCCNCCCNC(=O)c1csc(-c2csc(CCN)n2)n1,5.44,–,–,–,IC50 at 72 h [6]: 16.6 µM; pIC50 [4]: < 4.00; pIC50 (U-87 MG): 4.43; pIC50 [5]: 4.17; inhibition (microRNA 21 [2]; time 60-90 min): inactive
C#CCCCCC(=O)NCCc1nc(-c2nc(C(=O)NCCCNCCCCN)cs2)cs1,5.73,–,–,–,–
